According to US6573078B1, “Compounds which inhibit HIV replication” (priority 1992, dated 2003):

Legend:
Format in all cases: cell-based
HIV-1LAI [1] = test: Peptide inhibition of PBMC infection by prototypic isolate (RT activity readout); settings: FIG. 5
Procedure: (§1) About 25 TCID100 of two primary isolates and HIV-1LAI were added to […] human PBMCs (about 1.5×10^6/ml) containing the indicated final concentrations of test peptide or 5T4. Each treatment condition was tested in duplicate and the cells were cultured in RPMI1640 containing 10% FCS 5% IL2. Four days post infection an equal number of fresh PBMCs were added to each well. This step allows for further expansion of virus and increases the […] in the final RT assay. Supernatant was harvested 8 days after infection and tested for the presence of reverse transcriptase activity.
(§2) The micro RT assay was adapted from Goff et al. (J. Virol. 38, 239 (1981)) and Willey et al. (J. Virol. 62, 139 (1988)). Supernatants from virus/cell cultures are made 1% in Triton-X100. A […] sample of supernatant was added to 50 ml of RT cocktail in a 96 well U bottom microtiter plate and the samples incubated at 370° C. for 90 min. […]
(§3) The HIV1LAI virus was obtained from R. Gallo (see M. Popovic et al., Science 224, 497 (1984)) and propagated in CEM cells cultured in RPMI 1640 containing 10-% FCS. […] The TCID50 was calculated according to the Reed and Muench formula in accordance with known techniques. […] The titer of the HIV-1LAI stock used for these studies, as measured on the AA5 cell line, was approximately 1×10^7TCID50/ml. […]

HIV-1LAI [2] = test: Peptide inhibition of infection by cell-free virus (neutralization assay; AA5 cells, RT activity readout)
Procedure: Cell cultures were maintained in 96-well microtiter plates for 8 days by addition of fresh medium (but no further addition of peptides) every other day. On the eighth day post-infection, supernatant was tested for reverse transcriptase activity as evidence of successful infection.
The micro RT assay was adapted from Goff et al. (J. Virol. 38, 239 (1981)) and Willey et al. (J. Virol. 62, 139 (1988)). Supernatants from virus/cell cultures are made 1% in Triton-X100. A […] sample of supernatant was added to 50 ml of RT cocktail in a 96 well U bottom microtiter plate and the samples incubated at […] for 90 min. The cocktail contained 75 mM KCl, 2 mM dithiothreitol, 5 mm Mgcl2l 5 mg/ml poly A (Pharmacia cat. No. 27-4110-01), 0.25 units/ml oligo dT (Pharmacia cat. No. 27-7858-01), 0.05% NP40, 50 mM Tris-HC1, pH 7.8, 0.5 mM non-radioactive dTTP, and 10 mCi/ml ^32p-dTTP (Amersham cat. No. PB.10167). After the incubation period, 40 ml of reaction mixture was applied to a Schleicher and Schuell NA45 membrane (or DE81 paper) saturated in 2×SSC buffer (0.3M NaCl and […]) held in a Schleicher and Schuell Minifold over one sheet of GB003 filter paper. Each well of the minifold was washed four times with […] 2×SSC. The membrane was removed from the minifold and washed 2 more times in a pyrex dish with an excess of 2×SSC. Finally the membrane was drained on absorbent paper, placed on Whatman #3 paper, covered with saran wrap, and exposed to film overnight.
The HIV1LAI virus was obtained from R. Gallo (see M. Popovic et al., Science 224, 497 (1984)) and propagated in CEM cells cultured in RPMI 1640 containing 10-% FCS. Supernatant from the infected CEM cells was passed through a […] and the infectious titer estimated in a microinfectivity assay using the AA5 cell line to support virus replication. For this purpose 25 ml of serially diluted virus was added to 75 ml AA5 cells at 2×10^5/ml in a 96 well microtiter plate. Each virus dilution was tested in triplicate. Cells were cultured for eight days by addition of fresh medium every other day. On day 8 post infection supernatant samples were tested for virus replication as evidenced by RT activity released to the supernatant in accordance with the procedure described above. The TCID50 was calculated according to the Reed and Muench formula in accordance with known techniques. See L. Reed et al., Amer. J. Hygiene 27, 493 (1938) . The titer of the HIV-1LAI stock used for these studies, as measured on the AA5 cell line, was approximately 1×10^7TCID50/ml. The two primary isolates were obtained from PBMCs of two infected donors, one from Brazil (HIV-1Br3) and the other Trinidad (HIV-1Q72775) by co-cultivation with PHA-blasted normal donor PBMCs in RPMI 1640 containing IL2. The infectious titers of the primary virus stocks were estimated by titration onto normal human PHA blasted PBMCs in a 96 well microtiter plate, again using RT activity released to the supernatant as evidence for successful infection. The infectious titer of both of these isolates was estimated to be approximately 1×10^3 TCID100/ml.
The peptides were next tested for blockade of infection by cell-free virus. The results shown in FIG. 3 are representative of several experiments in which the DP-107, 125, and (CS3) peptides were compared for potency in the blockade of HIVLAI, infection of AA5 cells. Each level of peptide was incubated in triplicate with about 500 TCID50 of virus and cells. After 7 days of culture, cell-free supernatant was tested for the presence of RT activity as a measure of successful infection.

[3] = tested on: two primary HIV-1 isolates (HIV-1Br3, HIV-1Q72775); test: Peptide inhibition of PBMC infection by primary isolates (RT activity readout); settings: FIG. 5
Procedure: as §1, §2, §3

HIV-1LAI virus = test: Peptide blockade of HIV-1 induced cell-cell fusion (syncytia formation; Molt4 cells co-cultivated with chronically infected CEM cells); settings: for No. Syncytia/well: Table 3, ctrl cells only = 85
Procedure: The initial screen for antiviral activity of the peptides shown in FIG. 1 was for blockade of syncytium formation induced by overnight co-cultivation of uninfected Molt4 cells with chronically infected (HIV-1IIIB) CEM cells.
Approximately 7×10^4 Molt cells were incubated with 1×10^4 CEM cells chronically infected with the HIV-1LAI virus in 96 well plates (one-half area cluster plates;Costar. Cambridge, Mass.) in a final volume of […] culture media in accordance with known techniques (T. Matthews et al., Proc. Natl. Acad. Sci. U.S.A. 84, 5424 (1987)). Peptide inhibitors were added in a volume of […] and the cell mixtures were incubated for 24 hr at 37° C. At that time point, multinucleated giant cells were estimated by microscopic examination at a 40× magnification which allowed visualization of the entire well in a single field.

In the case of “CGNNLLRAIEAQQHLLQLTVWGIKQLQARILAVERYLKDQ (CGGNNLLRAIEAQQHLLQLTVWGIKQLQARILAVERYLKDQ) [DP-125]”, the “Inhibition of PBMC infection by prototypic isolate HIVLAI (in words)” value (HIV-1LAI [1]) is reported as “inhibit”, the “Neutraliz: quantity of compound required for 90% reduction in infectivity” value (HIV-1LAI [2]) is reported as 2 µg/mL and the “Dose required for inhibitory effect compared with DP-107 (in words)” value (HIV-1LAI [2]; FIG. 3) is reported as “lower”. The “Blockade of HIVLAI infection of AA5 cells (in words)” value (HIV-1LAI [2]; about 500 TCID50 of virus, RT activity in supernatant, FIG. 3) was “inhibited the de-novo infection process”, the “Inhibition of PBMC infection by primary isolates (in words)” value [3] was “inhibit” and the “Syncytia Number” value (HIV-1LAI virus; EXP. 2, peptide concentration 1.25 micrograms/ml, 0 peptide = 93) was 35. The “Syncytia Number” value (HIV-1LAI virus; EXP. 2, peptide concentration 2.5 micrograms/ml, 0 peptide = 93) was 3, the “Syncytia Number” value (HIV-1LAI virus; EXP. 2, peptide concentration 5 micrograms/ml, 0 peptide = 93) was 0 and the “Syncytia Number” value (HIV-1LAI virus; EXP. 2, peptide concentration 10 micrograms/ml, 0 peptide = 93) was 0. For the same sequence, the “Syncytia Number” value (HIV-1LAI virus; EXP. 2, peptide concentration 20 micrograms/ml, 0 peptide = 93) was 0, the “Syncytia Number” value (HIV-1LAI virus; EXP. 2, peptide concentration 40 micrograms/ml, 0 peptide = 93) was 0 and the “Syncytia Number” value (HIV-1LAI virus; EXP. 3, peptide concentration 1.25 micrograms/ml, 0 peptide = 76) was 0. The “Syncytia Number” value (HIV-1LAI virus; EXP. 3, peptide concentration 2.5 micrograms/ml, 0 peptide = 76) was 0, the “Syncytia Number” value (HIV-1LAI virus; EXP. 3, peptide concentration 5 micrograms/ml, 0 peptide = 76) was 0 and the “Syncytia Number” value (HIV-1LAI virus; EXP. 3, peptide concentration 10 micrograms/ml, 0 peptide = 76) was 0. The “Syncytia Number” value (HIV-1LAI virus; EXP. 3, peptide concentration 20 micrograms/ml, 0 peptide = 76) was 0, the “Syncytia Number” value (HIV-1LAI virus; EXP. 3, peptide concentration 40 micrograms/ml, 0 peptide = 76) was 0 and the “No. Syncytia/well” value (HIV-1LAI virus; peptide concentration 1.25 ug/ml on IIIB) was 0. The “No. Syncytia/well” value (HIV-1LAI virus; peptide concentration 2.5 ug/ml on IIIB) was 0, the “No. Syncytia/well” value (HIV-1LAI virus; peptide concentration 5 ug/ml on IIIB) was 0 and the “No. Syncytia/well” value (HIV-1LAI virus; peptide concentration 10 ug/ml on IIIB) was 0. The “No. Syncytia/well” value (HIV-1LAI virus; peptide concentration 20 ug/ml on IIIB) was 0, the “No. Syncytia/well” value (HIV-1LAI virus; peptide concentration 40 ug/ml on IIIB) was 0 and the “Fusion: quantity of compound required for 90% reduction in number of syncytia” value (HIV-1LAI virus; control = 90 syncytia) was less than 1 µg/mL. For the same sequence, the “Concentration required for inhibition relative to DP107” value (HIV-1LAI virus; syncytial blocking assays, Table 1 experiments 2 and 3) was “one-half to one-fourth”.
